This is an account of results in the NIST ThermoML archive (doi:10.1016/j.tca.2011.06.003).

± gives the expanded uncertainty stated by the source.

The conditions of the data set: 298.15 K, 101.33 kPa, Liquid; for viscosity: Capillary tube (Ostwald / Ubbelohde) method; for speed of sound: Sing-around technique in a fixed-path interferometer; for mass density: Vibrating tube method.

Regarding `CC(C)CO` [2-methyl-1-propanol], the viscosity is 3.307 ± 0.02 mPa·s, the speed of sound worked out at 1188.8 ± 0.8 m/s and the mass density stood at 798.104 ± 0.14 kg/m3.

For `CCCCO` [butan-1-ol], the viscosity is listed as 2.565 ± 0.016 mPa·s, the speed of sound is recorded as 1241.1 ± 0.8 m/s and the mass density stood at 805.953 ± 0.14 kg/m3.

As for `NCCNCCN` [di(2-aminoethyl)amine], the viscosity turned out to be 5.627 ± 0.033 mPa·s, the speed of sound came to 1670.5 ± 1 m/s and the mass density is recorded as 945.548 ± 0.099 kg/m3.

Turning to `CC(C)O` [propan-2-ol], the viscosity amounted to 2.063 ± 0.013 mPa·s, the speed of sound was 1140.4 ± 0.8 m/s and the mass density is given as 781.482 ± 0.15 kg/m3.
